According to ChEMBL document CHEMBL1201862, “PubChem BioAssay data set” (2004):
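Cells were grown in 96-well plates and exposed to each compound for 48 hours at five concentrations; endpoints were interpolated linearly between bracketing concentrations, or set to the highest concentration if not reached. The concentration for 50% growth inhibition is given as GI50.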 Activity calls are given as the source filed them. No stated cut-off is given here; in the data, active = GI50 up to about 1.1 µM and inactive = higher.

Legend:
Assay in all cases: NCI-60 cell line screen, 48 h
ACHN = tested on: ACHN
CAKI-1 = tested on: CAKI-1
SR = tested on: SR
Hs-578T = tested on: Hs-578T
BT-549 = tested on: BT-549
K562 = tested on: K562
OVCAR-3 = tested on: OVCAR-3
SW-620 = tested on: SW-620
NCI-H226 = tested on: NCI-H226
MCF7 = tested on: MCF7
HT-29 = tested on: HT-29
MDA-MB-435 = tested on: MDA-MB-435
LOX IMVI = tested on: LOX IMVI
SK-OV-3 = tested on: SK-OV-3
MDA-MB-231 = tested on: MDA-MB-231
OVCAR-8 = tested on: OVCAR-8
SNB-19 = tested on: SNB-19
NCI-H460 = tested on: NCI-H460
U-251 = tested on: U-251
SN12C = tested on: SN12C
TK-10 = tested on: TK-10
OVCAR-4 = tested on: OVCAR-4
NCI-H522 = tested on: NCI-H522
EKVX = tested on: EKVX
HCT-116 = tested on: HCT-116
IGROV-1 = tested on: IGROV-1
SF-268 = tested on: SF-268
MDA-N = tested on: MDA-N
SF-295 = tested on: SF-295
HOP-62 = tested on: HOP-62
SK-MEL-2 = tested on: SK-MEL-2
HL-60 = tested on: HL-60
OVCAR-5 = tested on: OVCAR-5
KM12 = tested on: KM12
UO-31 = tested on: UO-31
MOLT-4 = tested on: MOLT-4
RXF 393 = tested on: RXF 393
SF-539 = tested on: SF-539
UACC-62 = tested on: UACC-62
RPMI-8226 = tested on: RPMI-8226
786-0 = tested on: 786-0
HCT-15 = tested on: HCT-15
HCC 2998 = tested on: HCC 2998
COLO 205 = tested on: COLO 205
NCI/ADR-RES = tested on: NCI/ADR-RES
SK-MEL-28 = tested on: SK-MEL-28
SK-MEL-5 = tested on: SK-MEL-5
HOP-92 = tested on: HOP-92
DU-145 = tested on: DU-145
A498 = tested on: A498
SNB-75 = tested on: SNB-75
T47D = tested on: T47D
UACC-257 = tested on: UACC-257
PC-3 = tested on: PC-3
M14 = tested on: M14
NCI-H23 = tested on: NCI-H23
Malme-3M = tested on: Malme-3M
CCRF-CEM = tested on: CCRF-CEM
A549 = tested on: A549
KM-20L2 = tested on: KM-20L2
HOP-18 = tested on: HOP-18
DLD-1 = tested on: DLD-1
LXFL 529 = tested on: LXFL 529
DMS-273 = tested on: DMS-273
DMS-114 = tested on: DMS-114
M19-MEL = tested on: M19-MEL

## CCOC(=O)C(SCCO)C(C(=O)OCC)n1cnc2c(N)ncnc21 (stereo not given)
ACHN
  GI50: 10.5 µM (inactive)
CAKI-1
  GI50: 4.31 µM (inactive)
SR
  GI50: 4.63 µM (inactive)
Hs-578T
  GI50: 17.3 µM (inactive)
BT-549
  GI50: 15.3 µM (inactive)
K562
  GI50: 3.66 µM (inactive)
OVCAR-3
  GI50: 12.7 µM (inactive)
SW-620
  GI50: 3.01 µM (inactive)
NCI-H226
  GI50: 11.1 µM (inactive)
MCF7
  GI50: 5.55 µM (inactive)
HT-29
  GI50: 11 µM (inactive)
MDA-MB-435
  GI50: 13.6 µM (inactive)
LOX IMVI
  GI50: 5.61 µM (inactive)
SK-OV-3
  GI50: 54.7 µM (inactive)
MDA-MB-231
  GI50: 15.5 µM (inactive)
OVCAR-8
  GI50: 13.9 µM (inactive)
SNB-19
  GI50: 28.5 µM (inactive)
NCI-H460
  GI50: 12.4 µM (inactive)
U-251
  GI50: 7.26 µM (inactive)
SN12C
  GI50: 9.98 µM (inactive)
TK-10
  GI50: 15 µM (inactive)
OVCAR-4
  GI50: 18.7 µM (inactive)
NCI-H522
  GI50: 3.46 µM (inactive)
EKVX
  GI50: 16.5 µM (inactive)
HCT-116
  GI50: 8.95 µM (inactive)
IGROV-1
  GI50: 16.1 µM (inactive)
SF-268
  GI50: 15.9 µM (inactive)
MDA-N
  GI50: 15.8 µM (inactive)
SF-295
  GI50: 40.2 µM (inactive)
HOP-62
  GI50: 21.7 µM (inactive)
SK-MEL-2
  GI50: 15.8 µM (inactive)
HL-60
  GI50: 2 µM (inactive)
OVCAR-5
  GI50: 7.05 µM (inactive)
KM12
  GI50: 17.1 µM (inactive)
UO-31
  GI50: 20.7 µM (inactive)
MOLT-4
  GI50: 4.78 µM (inactive)
RXF 393
  GI50: 14.6 µM (inactive)
SF-539
  GI50: 16.3 µM (inactive)
UACC-62
  GI50: 12.3 µM (inactive)
RPMI-8226
  GI50: 5.04 µM (inactive)
786-0
  GI50: 3.03 µM (inactive)
HCT-15
  GI50: 6.27 µM
HCC 2998
  GI50: 13.8 µM (inactive)
COLO 205
  GI50: 6.03 µM (inactive)
NCI/ADR-RES
  GI50: 19.8 µM (inactive)
SK-MEL-28
  GI50: 17.3 µM (inactive)
SK-MEL-5
  GI50: 23.1 µM (inactive)
HOP-92
  GI50: 2.47 µM (inactive)
DU-145
  GI50: > 67.3 µM (inactive)
A498
  GI50: 14.9 µM (inactive)
SNB-75
  GI50: 12.1 µM (inactive)
T47D
  GI50: 11.2 µM (inactive)
UACC-257
  GI50: 35.1 µM (inactive)
PC-3
  GI50: 6.05 µM (inactive)
M14
  GI50: 5.07 µM (inactive)
NCI-H23
  GI50: 14.8 µM (inactive)
Malme-3M
  GI50: 9.91 µM (inactive)
CCRF-CEM
  GI50: 1.96 µM (inactive)
A549
  GI50: 44.3 µM (inactive)

## CCN(CC)CC1CCCCN1CC(=O)N1CC(C)C(=O)Nc2ccccc21 (stereo not given)
ACHN
  GI50: > 100 µM (inactive)
CAKI-1
  GI50: > 100 µM (inactive)
SR
  GI50: > 100 µM (inactive)
KM-20L2
  GI50: > 100 µM (inactive)
K562
  GI50: > 100 µM (inactive)
OVCAR-3
  GI50: > 100 µM (inactive)
SW-620
  GI50: > 100 µM (inactive)
NCI-H226
  GI50: > 100 µM (inactive)
HT-29
  GI50: > 100 µM (inactive)
LOX IMVI
  GI50: > 100 µM (inactive)
SK-OV-3
  GI50: > 100 µM (inactive)
HOP-18
  GI50: > 100 µM (inactive)
SNB-19
  GI50: > 100 µM (inactive)
NCI-H460
  GI50: > 100 µM (inactive)
U-251
  GI50: > 100 µM (inactive)
SN12C
  GI50: > 100 µM (inactive)
DLD-1
  GI50: > 100 µM (inactive)
OVCAR-4
  GI50: > 100 µM (inactive)
HCT-116
  GI50: > 100 µM (inactive)
IGROV-1
  GI50: > 100 µM (inactive)
SF-268
  GI50: > 100 µM (inactive)
SF-295
  GI50: > 100 µM (inactive)
HOP-62
  GI50: > 100 µM (inactive)
HL-60
  GI50: > 100 µM (inactive)
OVCAR-5
  GI50: > 100 µM (inactive)
UO-31
  GI50: > 100 µM (inactive)
MOLT-4
  GI50: > 100 µM (inactive)
LXFL 529
  GI50: > 100 µM (inactive)
DMS-273
  GI50: > 100 µM (inactive)
UACC-62
  GI50: > 100 µM (inactive)
RPMI-8226
  GI50: > 100 µM (inactive)
786-0
  GI50: > 100 µM (inactive)
DMS-114
  GI50: > 100 µM (inactive)
HCT-15
  GI50: > 100 µM
HCC 2998
  GI50: > 100 µM (inactive)
COLO 205
  GI50: > 100 µM (inactive)
SK-MEL-28
  GI50: > 100 µM (inactive)
SK-MEL-5
  GI50: > 100 µM (inactive)
HOP-92
  GI50: > 100 µM (inactive)
A498
  GI50: > 100 µM (inactive)
UACC-257
  GI50: > 100 µM (inactive)
M14
  GI50: > 100 µM (inactive)
NCI-H23
  GI50: > 100 µM (inactive)
M19-MEL
  GI50: > 100 µM (inactive)
Malme-3M
  GI50: > 100 µM (inactive)
CCRF-CEM
  GI50: > 100 µM (inactive)
A549
  GI50: > 100 µM (inactive)

## O=C1Sc2cc3ccccc3cc2C(=O)Sc2cc3ccccc3cc21
ACHN
  GI50: 28.9 µM (inactive)
CAKI-1
  GI50: 32.2 µM (inactive)
SR
  GI50: 0.454 µM (active)
Hs-578T
  GI50: 44.6 µM (inactive)
BT-549
  GI50: 32.3 µM (inactive)
K562
  GI50: 27 µM (inactive)
OVCAR-3
  GI50: 21.1 µM (inactive)
SW-620
  GI50: 30.3 µM (inactive)
NCI-H226
  GI50: > 100 µM (inactive)
MCF7
  GI50: 32.4 µM (inactive)
HT-29
  GI50: 28 µM (inactive)
MDA-MB-435
  GI50: 30.8 µM (inactive)
LOX IMVI
  GI50: 19 µM (inactive)
SK-OV-3
  GI50: > 100 µM (inactive)
MDA-MB-231
  GI50: > 54.6 µM (inactive)
OVCAR-8
  GI50: 24.5 µM (inactive)
SNB-19
  GI50: 47.1 µM (inactive)
NCI-H460
  GI50: 41.6 µM (inactive)
U-251
  GI50: 29.6 µM (inactive)
SN12C
  GI50: 23.2 µM (inactive)
TK-10
  GI50: 55.2 µM (inactive)
OVCAR-4
  GI50: 23.2 µM (inactive)
NCI-H522
  GI50: 7.45 µM (inactive)
EKVX
  GI50: 76.2 µM (inactive)
HCT-116
  GI50: 17.4 µM (inactive)
IGROV-1
  GI50: 32.3 µM (inactive)
SF-268
  GI50: 26 µM (inactive)
MDA-N
  GI50: 29 µM (inactive)
SF-295
  GI50: > 87.3 µM (inactive)
HOP-62
  GI50: 27.3 µM (inactive)
SK-MEL-2
  GI50: 23 µM (inactive)
HL-60
  GI50: 7.87 µM (inactive)
OVCAR-5
  GI50: 36.1 µM (inactive)
KM12
  GI50: 33 µM (inactive)
UO-31
  GI50: 19.5 µM (inactive)
MOLT-4
  GI50: 15.9 µM (inactive)
RXF 393
  GI50: 17.7 µM (inactive)
SF-539
  GI50: 31.9 µM (inactive)
UACC-62
  GI50: 24.8 µM (inactive)
RPMI-8226
  GI50: 6.68 µM (inactive)
786-0
  GI50: 15.4 µM (inactive)
HCT-15
  GI50: 22.8 µM
HCC 2998
  GI50: 21.3 µM (inactive)
COLO 205
  GI50: > 100 µM (inactive)
NCI/ADR-RES
  GI50: 29.1 µM (inactive)
SK-MEL-28
  GI50: 28.6 µM (inactive)
SK-MEL-5
  GI50: 50.8 µM (inactive)
HOP-92
  GI50: 30.2 µM (inactive)
DU-145
  GI50: 58.7 µM (inactive)
A498
  GI50: > 100 µM (inactive)
SNB-75
  GI50: 38.8 µM (inactive)
T47D
  GI50: 23.3 µM (inactive)
UACC-257
  GI50: 27.8 µM (inactive)
PC-3
  GI50: 33.9 µM (inactive)
M14
  GI50: 27.8 µM (inactive)
NCI-H23
  GI50: 43.3 µM (inactive)
Malme-3M
  GI50: 34.9 µM (inactive)
CCRF-CEM
  GI50: 2.6 µM (inactive)
A549
  GI50: 81.7 µM (inactive)
